Holding throughout (format): in vivo, mouse (C57BL/6J)
Assay [1] relates to mTOR/insulin signaling pathway (IGF1R, IRS1, PI3K, AKT, mTOR, S6K, 4EBP1). As to the kind of experiment: Sucrose-induced aging mice: mTOR/insulin signaling pathway in muscle tissues, Western blot (Example 2). The settings on record: once per day day 17-30, ATG-125 60 mg/kg topical, 4-OHT 1 mg/kg intraperitoneal, FIGS. 4A and 4B. On the procedure:
(§1) Male C57BL/6J (6 and 18 months) mice were fed standard chow and water ad libitum, and housed under conditions of control temperature (26° C.) and illumination (12-hour light/dark cycle). […]
(§2) Muscle tissues were harvested immediately from the mice after they were sacrificed, followed by flash frozen in liquid nitrogen and stored at −80° C. Proteins were extracted from muscle tissues with distilled water containing protease inhibitors, and each protein concentration was determined by protein assay kits. Protein (50 μg) was analyzed on a 10% sodium dodecyl sulfate polyacrylamide gel electrophoresis (SDS-PAGE), and transferred to a polyvinylidene difluoride (PVDF) membrane. […] The optical densities of the bands were quantified using software. […]
On the technique in general: A western blot detects proteins with antibodies after separation by electrophoresis.

The subject of assay [2] is muscle tissues of aging mice fed with sucrose. As to the kind of experiment: Sucrose-induced muscle atrophy in aging mice, topical administration: histology and muscle atrophy-associated molecules (Example 1). The settings on record: once per day day 17-30, ATG-125 60 mg/kg topical, 4-OHT 1 mg/kg intraperitoneal. As for the experimental part: as §1, §2
Assay [3] deals with mitochondrial biogenesis mediators (SIRT1, PGC1α, NRF1, TFAM, UCP1, UCP2, UCP3). Kind of assay: Sucrose-induced aging mice: mitochondrial molecules in muscle tissues, mRNA and protein (Example 3). The settings on record: once per day day 17-30, ATG-125 60 mg/kg topical, 4-OHT 1 mg/kg intraperitoneal, FIGS. 5 and 6. On the procedure: as §1, §2
Assay [4] relates to mitochondrial biogenesis mediators (SIRT1, PGC1α, NRF1, TFAM, UCP1, UCP2). Kind of assay: Sucrose and MPTP-induced aging mice: mitochondrial molecules mRNA in muscle tissues (Example 5). The settings on record: once per day day 17-30, ATG-125 60 mg/kg oral, selegiline 1 mg/kg intraperitoneal, FIG. 8. As for the experimental part:
as §1
Total RNA was isolated from 0.2 g of muscle tissues using RNA extraction kit. For qRT-PCR (real-time reverse transcription-PCR), equal amounts of RNA were retro-transcribed to cDNA using cDNA reverse transcription kit according to the manufacturer's instruction. atrogin-1, klotho, mitochondrial transcription factor A (TFAM), SIRT1, PGC1α, nuclear respiratory factor 1 (NRF1), UCP1, and UCP2 mRNA expressions were evaluated using the SYBR® Green PCR master mix. Relative expression was calculated using the ΔΔCt method with normalization to constitutive genes.
Mitochondria play an essential role in energy production, redox homeostasis, and the regulation of cell death pathways. […] Thus, whether ATG-125 solution improves the mitochondrial function in the animal having muscle atrophy was evaluated in this example, and the results were respectively depicted in FIG. 8.

Assay [5] concerns muscle tissues of sucrose and MPTP-induced aging mice. As to the kind of experiment: Sucrose and MPTP-induced muscle atrophy in aging mice, oral administration: histology, atrogin-1 and klotho mRNA (Example 4). The settings on record: once per day day 17-30, ATG-125 60 mg/kg oral, selegiline 1 mg/kg intraperitoneal, FIG. 7. As for the experimental part: as §1
Total RNA was isolated from 0.2 g of muscle tissues using RNA extraction kit. For qRT-PCR (real-time reverse transcription-PCR), equal amounts of RNA were retro-transcribed to cDNA using cDNA reverse transcription kit according to the manufacturer's instruction. atrogin-1, klotho, mitochondrial transcription factor A (TFAM), SIRT1, PGC1α, nuclear respiratory factor 1 (NRF1), UCP1, and UCP2 mRNA expressions were evaluated using the SYBR® Green PCR master mix. Relative expression was calculated using the ΔΔCt method with normalization to constitutive genes. […]

Consider 4-hydroxytamoxifen [4-OHT], for which, in assay [1], the “phosphorylated levels (activations) of mTOR/insulin signaling molecules (pIGF1R, pIRS1, pPI3K, pAKT, pmTOR, pS6K, p4EBP1)” value is “enhanced”. The “adverse effect of sucrose on muscle tissues (protein levels of pAMPK, FOXO3a, MuRF1, lipofuscin; mRNA levels of Atrogin-1 and Klotho)” value in assay [2] (FIGS. 1 to 3) is “significantly reversed”. In addition, the “levels of adipocytes and degenerated myofibers in muscles” value in assay [2] (H&E, FIG. 1) is on record as “decreased”. In assay [3], the “expression levels of mitochondrial biogenesis mediators (mRNA SIRT1, PGC1α, NRF1, TFAM, UCP1, UCP2; protein SIRT1, PGC1α, UCP1, UCP2, UCP3) in muscle tissues” value was “increased”.

`C#CCN(C)[C@H](C)Cc1ccccc1` [selegiline]: the “expression levels of mitochondrial biogenesis mediators (mRNA SIRT1, PGC1α, NRF1, TFAM, UCP1, UCP2) in muscle tissues” value in assay [4] is recorded as “increased”. In assay [5], the “adverse effect of sucrose and MPTP on muscle tissues (mRNA levels of Atrogin-1 and Klotho)” value is given as “significantly reversed”. The “levels of degenerated myofibers in muscles” value in assay [5] (H&E) is “decreased”.

The values are drawn from patent US12357665B2, “Pharmaceutical compositions and uses thereof in treating muscle atrophy” (Tzung-Yan, priority 2020, dated 2025).
